Assay results reported in US11815435B2, “Beta glucan immunopharmacodynamics” (HiberCell, Inc., priority 2017, dated 2023).

System: anti-β-glucan antibody (ABA IgG, ABA IgM)
Experiment: Example 1: IgG and IgM ABA levels in a cancer subject on IVIG, IMPRIME PGG and pembrolizumab
Format: in vivo, human
Details: same subject and regimen
Method: Soluble β-glucan immunotherapy was administered to a subject diagnosed with glucaganoma. The subject's ABA level prior to immunotherapy treatment placed them in the Low-ABA subgroup, and therefore, their ABA level was boosted by administration of IVIG. GAMMAGARD at 100 mg/ml was intravenously administered prior to each treatment, which provided 161 μg ABA/ml. […] Each cycle was 3 weeks.

pembrolizumab [reference compound]
ABA IgG (cycle 1, day 2 EOI pembro): 18.2 µg/mL | ABA IgM (cycle 1, day 2 EOI pembro): 5.3 µg/mL | ABA IgG (cycle 2, day 1 EOI-pembro): 49.4 µg/mL | ABA IgM (cycle 2, day 1 EOI-pembro): 9.6 µg/mL | ABA IgG (cycle 3, day 1 EOI-pembro): 60.7 µg/mL
